In patent publication US9034862B2, “Compositions and methods for the treatment of cancer” (priority 2011, dated 2015):

Columns and labels:
[1] = equimolar N-AcMet, 37° C.
Method: NMR spectra were collected on a Varian 500 spectrometer equipped with a triple-resonance broadband inverse probe and a variable temperature unit. The 1-D ^1H NMR kinetic studies were performed in duplicate as a standard time-arrayed experiment using a variable delayed list. Incremented 1-D spectra were processed in exactly the same way and signals of aromatic amine ligands from platinum compounds were integrated. The relative concentrations of the platinum compound at each time point were calculated from peak integrals. […] Reactions of platinum compounds with N-AcMet were performed in NMR tubes containing 2 mM of the Pt complex and 2 mM (1 equiv) of N-AcMet in 10 mM PBS buffer, D2O, pH*7.4 at 37° C. […] Deuterated 3-(trimethylsilyl)propionic acid sodium salt (TMS-PFASS) was used as an internal standard. The pH* values are the measured pH values without correction for the effect of deuterium on the electrode.

[2] = tested on: GLuc expression in HT29 cells; assay: Transcription assay, globally platinated pGLuc, HT29; type: cell-based, human
Method: (§1) Transfection of transcription probes into A549 and HT29 cells with the pGLuc plasmid was carried out using liposomal transfecting agents. Determination of expression levels was tested by Luciferase assays monitored by a luminometer (J. Am. Chem. Soc. 2010, 132, 7429-7435). A549 cells were plated in 96-well plates at 2,000 cells/well and HT29 cells were plated in 96-well plates at 6,000 cells/well. After 48 h incubation (at ˜30% confluence), cells were transfected with 50 ng of platinated plasmids in 25 μL Opti-MEM and 0.125 μL Lipofectamine 2000, and subsequently 50 μL of antibiotics-free DMEM supplemented with 10% FBS. After 2 h, the cells were washed with medium and 100 μL of fresh medium was added. The experiment was carried out in quadruplicate.
(§2) GLuc activity was monitored using a luminescence plate reader (Synergy 2, BioTek, Winooski, Vt., USA). A 10 μL volume of medium at different time points (12, 24, 36, 48, 60 h) was transferred into opaque white 96-well plates, and 25 μL of GLuc assay solution (10 μM colelenterazine (NanoLight Technologies, Pinetop, Ariz., USA) in 2.5 mM acidified methanol (100 mM HCl), buffer (10 mM Tris-HCl pH 7.8, 1 mM EDTA, 0.6 M NaCl)) was added by the automatic injector of the instrument.
(§3) In another embodiment, A549 or HT29 cells were transfected using the platinated transcription probes, and transcription levels were investigated by determining GLuc expression as measured by […] following addition of coelenterazine as a substrate for the exported enzyme. The emission intensities were normalized against unplatinated plasmids as a control. Transcription profiles were obtained by plotting normalized levels of GLuc expression against platination levels (Pt/plasmid ratio) at five different time points. […] An increase in D0 value at different time points represents restoration of transcription.

[3] = tested on: GLuc expression in A549 cells; assay: Transcription assay, globally platinated pGLuc, A549; type: cell-based, human; settings: for transcription level (normalized against unplatinated plasmid): Pt/DNA ratio of […] for phenanthriplatin
Method: as §1, §2, §3

[4] = tested on: human breast carcinoma MCF7; assay: MTT assay, MCF7; type: cell-based
Method: Human colon carcinoma HT29, human breast carcinoma MCF7, human bone sarcoma U2OS, human prostate carcinoma PC3, and human cervix carcinoma HeLa cells were obtained from the ATCC. A2780/CP70 cisplatin-resistant human ovarian cancer cells were kindly provided by Dr. Stephen B. Howell (Moores UCSD Cancer Center) and the human lung carcinoma cell lines A549 and normal lung fibroblast MRC5 by David E. Root (Whitehead Institute for Biomedical Research). Cells were incubated at 37° C. in 5% CO2 and grown in RPMI (HT29, A2780/CP70, and PC3) or DMEM (A549, MRC5, HeLa, MCF7, and U2OS) medium supplemented with 10% fetal bovine serum and 1% penicillin/streptomycin. Cells were passed every 3 to 4 days and restarted from a frozen stock upon reaching pass number 20.
Solutions of the platinum compounds were freshly prepared in sterile PBS before use and their concentrations quantitated by atomic absorption spectroscopy. […] The cells were then treated with 20 μL of 3-(4,5-dimethylthiazol-2-yl)-2,5-diphenyltetrazolium bromide (MTT) (5 mg/mL in PBS) and incubated for 4 h. The medium was removed, 100 μL of DMSO was added to the cells, and the absorbance of the purple formazan was recorded at 560 nm using a BioTek Synergy HT multi-detection microplate plate reader. Each condition was performed in triplicate and three independent experiments were carried out for each cell line.

## cis-[Pt(NH3)2(phenanthridine)Cl]NO3 [phenanthriplatin]
[1]
  second-order rate constant, reaction with N-AcMet: 0.00944 M⁻¹ s⁻¹
[2]; HT29, 12 h after transfection
  D0 (Pt lesions per plasmid required to reduce transcription levels to 37% of control): 18.9 Pt/plasmid
[2]; HT29, 48 h after transfection
  D0 (Pt lesions per plasmid required to reduce transcription levels to 37% of control): 23.5 Pt/plasmid
[2]; HT29, 60 h, Pt/DNA ratio of […] for phenanthriplatin
  transcription level (normalized against unplatinated plasmid): 37.6%
[2]; HT29, 60 h after transfection
  D0 (Pt lesions per plasmid required to reduce transcription levels to 37% of control): 25.0 Pt/plasmid
[3]; A549, 12 h
  transcription level (normalized against unplatinated plasmid): 19.5%
[3]; A549, 12 h after transfection
  D0 (Pt lesions per plasmid required to reduce transcription levels to 37% of control): 14.2 Pt/plasmid
[3]; A549, 24 h after transfection
  D0 (Pt lesions per plasmid required to reduce transcription levels to 37% of control): 17.3 Pt/plasmid
[3]; A549, 36 h after transfection
  D0 (Pt lesions per plasmid required to reduce transcription levels to 37% of control): 22.2 Pt/plasmid
[3]; A549, 48 h after transfection
  D0 (Pt lesions per plasmid required to reduce transcription levels to 37% of control): 31.6 Pt/plasmid
[3]; A549, 60 h
  transcription level (normalized against unplatinated plasmid): 51.1%
[3]; A549, 60 h after transfection
  D0 (Pt lesions per plasmid required to reduce transcription levels to 37% of control): 39.8 Pt/plasmid
[4]; Table 3, MCF7 Breast, 72-h incubation
  IC50: 940 ± 90 nM
[4]; Table 14, MCF7, MTT assay
  IC50: 1140 ± 20 nM
